Test results taken from PMC11672653 (Antibiotics, 2024).

Legend:
[1] = test system: polyclonal antibodies against ERM (anti-ERM antibody); assay: Competitive indirect ELISA with anti-eremomycin antibody and heterologous VCM coating conjugates; assay type: binding, rabbit; details: for IC50: cross-reactivity study, eremomycin antibody-based ELISA for vancomycin (coating BSA-VCM×50f); for CR (cross-reactivity): relative to vancomycin = 100%, eremomycin antibody-based ELISA (coating BSA-VCM×50f)
Experimental: The coating conjugates were adsorbed in 96-well plates from solutions (0.05–1.5 µg/mL) in 0.1 mL CBB. After overnight incubation at 4 °C, the plates were washed three times with PBST to remove unbound reagent. Serial dilutions of antibodies in 0.1 mL 1% BSA-PBST were combined with standard (0, 0.01–10,000 ng/mL) in 0.1 mL PBST and incubated for 1 h at 25 °C. Following the washing procedure, the bound antibody was then detected using the GAR-HRP (1 h, 37 °C) in 0.1 mL of 1% BSA-PBS and subsequently washed out. The enzymatic activity was determined by the addition of TMB substrate (0.1 mL) to the wells, followed by the addition of 0.1 mL of 1 M sulfuric acid 30 min later, which terminated the reaction. The absorbance of the colored reaction product was read at 450 nm using a LisaScan spectrophotometer (Erba Mannheim, Karásek, Czech Republic).
The maximum optical output signal (100%) at zero concentration of VCM was referred to as B0. The decrease in the signal caused by each antibiotic concentration was expressed as the B/B0 ratio and was used to construct standard curves using a four-parameter logistic fitting in GraphPad Prism 8.0 software. The VCM half-inhibitory concentration (IC50) served as the sensitivity value for the comparison of assay variants and the cross-reactivity of analogs.
The checkerboard titration was employed to identify the optimal ratio of coating antigen to antibody, with concentrations taken in a serial fashion.

[2] = HPLC-MS/MS re-analysis of frozen VCM-spiked human serum (accuracy, stability); details: one week, several freeze/thaw cycles
Experimental: The same samples spiked with VCM were frozen and analyzed by HPLC-MS/MS one week later.
Frozen serum samples were thawed prior to analysis and assayed for VCM concentration by ELISA and LC-MS/MS in parallel. The procedure and sample preparation for LC-MS/MS analysis are detailed in the Supplementary File.
An aliquot (10 μL) of the analyte working solution and an aliquot (10 μL) of the IS working solution (1000 ng/ml) were added to an aliquot (100 μL) of serum. After vortexing the sample, 400 μL of cooled (4 °C) water contacting 15% trifluoroacetic acid was added for precipitation, and the sample was mixed well and centrifuged (2750 × g, 15 min, 4 °C). An aliquot (20 μL) of the supernatant was transferred to a test plate containing 230 μL ACN/H2O (10/90) solution for further UPLC-MS/MS analysis (Table S2). Calibration was constructed as a function of VCM concentrations versus corresponding peak area values (Figure S2).
Table S2. Calibration of spiked human serum samples using HPLC-MS/MS (n=4) […]
Figure S2. Calibration of spiked human serum samples using HPLC-MS/MS
Table S3. Recovery from spiked human serum samples using HPLC-MS/MS (N=6) […]
(1 picture or pasted object on this page, not shown here)

[3] = cited from earlier work

IC50 [1]	Compound	CR (cross-reactivity) [1] [%]	CR (cross-reactivity) ([1]; listed as teicoplanin) [%]	stability in human serum [2]	recommended Ctrough range [3] [ng/mL]
>10,000 ng/mL	CC[C@H]1OC(=O)[C@H](C)[C@@H](O[C@H]2C[C@@](C)(OC)[C@@H](O)[C@H](C)O2)[C@H](C)[C@@H](O[C@@H]2O[C@H](C)C[C@H](N(C)C)[C@H]2O)[C@](C)(O)C[C@@H](C)CN(C)[C@H](C)[C@@H](O)[C@]1(C)O [Azithromycin]	<0.3			
>10,000 ng/mL	C[C@@H](O)[C@H]1C(=O)N2C(C(=O)O)=C(S[C@@H]3CN[C@H](C(=O)N(C)C)C3)[C@H](C)[C@H]12 [Meropenem]	<0.3			
>10,000 ng/mL	CN(C)c1cc(NC(=O)CNC(C)(C)C)c(O)c2c1C[C@H]1C[C@H]3[C@H](N(C)C)C(O)=C(C(N)=O)C(=O)[C@@]3(O)C(O)=C1C2=O [Tigecycline]	<0.3			
>10,000 ng/mL	Teicoplanin	<0.3	< 0.3		
	CN[C@H](CC(C)C)C(=O)N[C@H]1C(=O)N[C@@H](CC(N)=O)C(=O)N[C@H]2C(=O)N[C@H]3C(=O)N[C@H](C(=O)N[C@H](C(=O)O)c4cc(O)cc(O)c4-c4cc3ccc4O)[C@H](O)c3ccc(c(Cl)c3)Oc3cc2cc(c3O[C@@H]2O[C@H](CO)[C@@H](O)[C@H](O)[C@H]2O[C@H]2C[C@](C)(N)[C@H](O)[C@H](C)O2)Oc2ccc(cc2Cl)[C@H]1O [Vancomycin]			stability of the analyte in human serum	15000 to 20000
>10,000 ng/mL	CNC(C)C1CCC(N)C(OC2C(N)CC(N)C(OC3OCC(C)(O)C(NC)C3O)C2O)O1 (centres unmarked) [Gentamicin]	<0.3			
>10,000 ng/mL	Polymyxin B	<0.3			
>10,000 ng/mL	CC(=O)NC[C@H]1CN(c2ccc(N3CCOCC3)c(F)c2)C(=O)O1 [Linezolid]	<0.3			
>10,000 ng/mL	NCC[C@H](O)C(=O)N[C@@H]1C[C@H](N)[C@@H](O[C@H]2O[C@H](CN)[C@@H](O)[C@H](O)[C@H]2O)[C@H](O)[C@H]1O[C@H]1O[C@H](CO)[C@@H](O)[C@H](N)[C@H]1O [Amikacin]	<0.3			
>10,000 ng/mL	Colistin	<0.3			

Compound	IC50 [1]	CR (cross-reactivity) [1] [%]	CR (cross-reactivity) ([1]; listed as teicoplanin) [%]	stability in human serum [2]	recommended Ctrough range [3] [ng/mL]
Eremomycin	33.0 ng/mL	104			
